Data reported in PubChem BioAssay (NCI).
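GI50 marks 50% less growth. TGI: concentration producing complete growth inhibition.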

How the values were obtained:
Assay in all cases: NCI-60 cell line screen, 384-well format
HCT-116 colon = system: HCT-116 colon
OVCAR-3 ovarian = system: OVCAR-3 ovarian
T-47D breast = system: T-47D breast
DU-145 prostate = system: DU-145 prostate
IGROV1 ovarian = system: IGROV1 ovarian
A498 renal = system: A498 renal
HOP-92 NSCLC = system: HOP-92 NSCLC
BT-549 breast = system: BT-549 breast
MDA-MB-468 breast = system: MDA-MB-468 breast
MALME-3M melanoma = system: MALME-3M melanoma
HS 578T breast = system: HS 578T breast
EKVX NSCLC = system: EKVX NSCLC
U251 glioblastoma = system: U251 glioblastoma
SR leukemia = system: SR leukemia
ACHN renal = system: ACHN renal
RXF 393 renal = system: RXF 393 renal
TK-10 renal = system: TK-10 renal
CAKI-1 renal = system: CAKI-1 renal
HL-60(TB) leukemia = system: HL-60(TB) leukemia
UO-31 renal = system: UO-31 renal
OVCAR-4 ovarian = system: OVCAR-4 ovarian
HCT-15 colon = system: HCT-15 colon
HCC-2998 colon = system: HCC-2998 colon
A549 NSCLC = system: A549 NSCLC
SK-MEL-2 melanoma = system: SK-MEL-2 melanoma
NCI-H460 NSCLC = system: NCI-H460 NSCLC
SK-OV-3 ovarian = system: SK-OV-3 ovarian
SN12C renal = system: SN12C renal
NCI-H23 lung = system: NCI-H23 lung
M14 melanoma = system: M14 melanoma
RPMI-8226 leukemia = system: RPMI-8226 leukemia
SW-620 colon = system: SW-620 colon
LOX IMVI melanoma = system: LOX IMVI melanoma
PC-3 prostate = system: PC-3 prostate
SNB-19 CNS = system: SNB-19 CNS
COLO 205 colon = system: COLO 205 colon
MDA-MB-435 melanoma = system: MDA-MB-435 melanoma
OVCAR-8 ovarian = system: OVCAR-8 ovarian
HT29 colon = system: HT29 colon
UACC-62 melanoma = system: UACC-62 melanoma
SF-295 CNS = system: SF-295 CNS
OVCAR-5 ovarian = system: OVCAR-5 ovarian
786-0 renal = system: 786-0 renal
CCRF-CEM leukemia = system: CCRF-CEM leukemia
SNB-75 CNS = system: SNB-75 CNS
K-562 leukemia = system: K-562 leukemia
SF-268 CNS = system: SF-268 CNS
NCI/ADR-RES ovarian = system: NCI/ADR-RES ovarian
NCI-H522 lung = system: NCI-H522 lung
MOLT-4 leukemia = system: MOLT-4 leukemia
NCI-H226 lung = system: NCI-H226 lung
KM12 colon = system: KM12 colon
SF-539 CNS = system: SF-539 CNS
HOP-62 NSCLC = system: HOP-62 NSCLC
NCI-H322M lung = system: NCI-H322M lung
UACC-257 melanoma = system: UACC-257 melanoma
MCF7 breast = system: MCF7 breast
SK-MEL-5 melanoma = system: SK-MEL-5 melanoma
MDA-MB-231 breast = system: MDA-MB-231 breast
SK-MEL-28 melanoma = system: SK-MEL-28 melanoma

`NC[C@@](O)(c1ccc(Cl)cc1)c1ccc(-c2cn[nH]c2)cc1` gave a GI50 (HCT-116 colon) of 1.65 µM, a TGI (HCT-116 colon) of 3.08 µM and a GI50 (OVCAR-3 ovarian) of 1.96 µM. It also gave a TGI (OVCAR-3 ovarian) of 3.39 µM, a GI50 (T-47D breast) of 1.3 µM and a TGI (T-47D breast) of 2.59 µM. For the same molecule, the GI50 (DU-145 prostate) was 1.47 µM, the TGI (DU-145 prostate) was 2.81 µM and the GI50 (IGROV1 ovarian) was 0.323 µM. It also gave a TGI (IGROV1 ovarian) of 1.27 µM, a GI50 (A498 renal) of 1.32 µM and a TGI (A498 renal) of 2.61 µM. For the same molecule, the GI50 (HOP-92 NSCLC) was 1.2 µM, the TGI (HOP-92 NSCLC) was 2.53 µM and the GI50 (BT-549 breast) was 0.511 µM. The TGI (BT-549 breast) was 1.78 µM, the GI50 (MDA-MB-468 breast) was 0.849 µM and the TGI (MDA-MB-468 breast) was 2.11 µM. For the same molecule, the GI50 (MALME-3M melanoma) was 1.65 µM, the TGI (MALME-3M melanoma) was 3.02 µM and the GI50 (HS 578T breast) was 0.957 µM. For the same molecule, the TGI (HS 578T breast) was 2.15 µM, the GI50 (EKVX NSCLC) was 0.56 µM and the TGI (EKVX NSCLC) was 1.82 µM. The GI50 (U251 glioblastoma) was 1.58 µM, the TGI (U251 glioblastoma) was 2.95 µM and the GI50 (SR leukemia) was 0.369 µM. For the same molecule, the TGI (SR leukemia) was 1.38 µM, the GI50 (ACHN renal) was 1.32 µM and the TGI (ACHN renal) was 2.6 µM. For the same molecule, the GI50 (RXF 393 renal) was 0.999 µM, the TGI (RXF 393 renal) was 2.18 µM and the GI50 (TK-10 renal) was 0.904 µM. It also gave a TGI (TK-10 renal) of 2.11 µM, a GI50 (CAKI-1 renal) of 0.56 µM and a TGI (CAKI-1 renal) of 1.94 µM. The GI50 (HL-60(TB) leukemia) was 0.944 µM and the TGI (HL-60(TB) leukemia) was 2.16 µM.
With `CC(C)Oc1ccc(C(=O)N[C@H](CNC(=O)CN(C)C)Cc2ccc(-c3cn4cccc([C@H](C)O)c4n3)cc2)cc1Cl` the GI50 (UO-31 renal) was 0.0492 µM, the TGI (UO-31 renal) was 17 µM and the GI50 (HCT-116 colon) was < 0.0172 µM. For the same molecule, the TGI (HCT-116 colon) was 12.2 µM, the GI50 (OVCAR-4 ovarian) was < 0.0209 µM and the TGI (OVCAR-4 ovarian) was 16.1 µM. For the same molecule, the GI50 (HCT-15 colon) was 0.0847 µM, the TGI (HCT-15 colon) was 15.8 µM and the GI50 (HCC-2998 colon) was < 0.0179 µM. The GI50 (OVCAR-3 ovarian) was < 0.01 µM, the TGI (OVCAR-3 ovarian) was < 0.01 µM and the GI50 (T-47D breast) was < 0.0174 µM. For the same molecule, the TGI (T-47D breast) was 12.1 µM, the GI50 (A549 NSCLC) was < 0.0207 µM and the TGI (A549 NSCLC) was 14.5 µM. The GI50 (SK-MEL-2 melanoma) was < 0.01 µM, the TGI (SK-MEL-2 melanoma) was < 0.013 µM and the GI50 (NCI-H460 NSCLC) was < 0.0147 µM. The TGI (NCI-H460 NSCLC) was < 0.0214 µM, the GI50 (SK-OV-3 ovarian) was < 0.0161 µM and the TGI (SK-OV-3 ovarian) was 8.72 µM. The GI50 (SN12C renal) was < 0.02 µM, the TGI (SN12C renal) was 14.2 µM and the GI50 (DU-145 prostate) was < 0.0174 µM. For the same molecule, the TGI (DU-145 prostate) was < 0.0289 µM, the TGI (IGROV1 ovarian) was 20.9 µM and the GI50 (NCI-H23 lung) was < 0.0145 µM. For the same molecule, the TGI (NCI-H23 lung) was < 0.0218 µM, the GI50 (A498 renal) was < 0.0229 µM and the TGI (A498 renal) was 11.4 µM. For the same molecule, the GI50 (M14 melanoma) was < 0.016 µM, the TGI (M14 melanoma) was 0.269 µM and the GI50 (HOP-92 NSCLC) was 0.055 µM. For the same molecule, the TGI (HOP-92 NSCLC) was 12.3 µM, the GI50 (RPMI-8226 leukemia) was < 0.0137 µM and the TGI (RPMI-8226 leukemia) was < 0.0184 µM. For the same molecule, the GI50 (SW-620 colon) was < 0.0198 µM, the TGI (SW-620 colon) was 13.4 µM and the GI50 (LOX IMVI melanoma) was 0.0379 µM. For the same molecule, the TGI (LOX IMVI melanoma) was 10.3 µM, the GI50 (PC-3 prostate) was < 0.0203 µM and the TGI (PC-3 prostate) was 12.8 µM. The GI50 (SNB-19 CNS) was < 0.0174 µM, the TGI (SNB-19 CNS) was 14.8 µM and the GI50 (COLO 205 colon) was 0.0214 µM. The TGI (COLO 205 colon) was 0.0427 µM, the GI50 (MDA-MB-435 melanoma) was < 0.0142 µM and the TGI (MDA-MB-435 melanoma) was < 0.0228 µM. The GI50 (OVCAR-8 ovarian) was < 0.019 µM, the TGI (OVCAR-8 ovarian) was 15.9 µM and the GI50 (HT29 colon) was < 0.0122 µM. The TGI (HT29 colon) was < 0.0214 µM, the GI50 (BT-549 breast) was < 0.0212 µM and the GI50 (MDA-MB-468 breast) was < 0.01 µM. The TGI (MDA-MB-468 breast) was < 0.01 µM, the GI50 (UACC-62 melanoma) was < 0.0177 µM and the TGI (UACC-62 melanoma) was 9.18 µM. The GI50 (MALME-3M melanoma) was 0.182 µM, the TGI (MALME-3M melanoma) was 3.16 µM and the GI50 (SF-295 CNS) was < 0.01 µM. The TGI (SF-295 CNS) was < 0.01 µM, the GI50 (OVCAR-5 ovarian) was < 0.0207 µM and the TGI (OVCAR-5 ovarian) was 14.4 µM. The GI50 (EKVX NSCLC) was 0.0279 µM, the TGI (EKVX NSCLC) was 0.24 µM and the GI50 (U251 glioblastoma) was < 0.0175 µM. For the same molecule, the TGI (U251 glioblastoma) was 11.5 µM, the GI50 (SR leukemia) was < 0.0121 µM and the TGI (SR leukemia) was < 0.0171 µM. For the same molecule, the GI50 ([…]-0 renal) was < 0.0178 µM, the TGI (786-0 renal) was 4.56 µM and the GI50 (CCRF-CEM leukemia) was 0.0172 µM. The TGI (CCRF-CEM leukemia) was 0.0335 µM, the GI50 (ACHN renal) was 0.0537 µM and the TGI (ACHN renal) was 20.1 µM. The GI50 (SNB-75 CNS) was 0.0446 µM, the TGI (SNB-75 CNS) was 16.6 µM and the GI50 (K-562 leukemia) was < 0.0128 µM. The TGI (K-562 leukemia) was < 0.0221 µM, the GI50 (SF-268 CNS) was < 0.0179 µM and the TGI (SF-268 CNS) was 13.2 µM. For the same molecule, the GI50 (NCI/ADR-RES ovarian) was 1.41 µM, the TGI (NCI/ADR-RES ovarian) was 4.67 µM and the GI50 (NCI-H522 lung) was < 0.01 µM. For the same molecule, the TGI (NCI-H522 lung) was < 0.01 µM, the GI50 (RXF 393 renal) was < 0.0185 µM and the GI50 (TK-10 renal) was < 0.0267 µM. For the same molecule, the TGI (TK-10 renal) was 14.7 µM, the GI50 (MOLT-4 leukemia) was < 0.0111 µM and the TGI (MOLT-4 leukemia) was < 0.0159 µM. For the same molecule, the GI50 (NCI-H226 lung) was 0.343 µM, the TGI (NCI-H226 lung) was 14.5 µM and the GI50 (CAKI-1 renal) was < 0.0283 µM. For the same molecule, the TGI (CAKI-1 renal) was 15.4 µM, the GI50 (KM12 colon) was < 0.0209 µM and the TGI (KM12 colon) was 13.8 µM. The GI50 (SF-539 CNS) was < 0.0159 µM, the TGI (SF-539 CNS) was < 0.034 µM and the GI50 (HOP-62 NSCLC) was < 0.0181 µM. For the same molecule, the TGI (HOP-62 NSCLC) was 14.7 µM, the GI50 (NCI-H322M lung) was < 0.0257 µM and the TGI (NCI-H322M lung) was 16.7 µM. The GI50 (UACC-257 melanoma) was < 0.0219 µM, the TGI (UACC-257 melanoma) was 1.82 µM and the GI50 (MCF7 breast) was < 0.023 µM. The TGI (MCF7 breast) was 13.5 µM, the GI50 (SK-MEL-5 melanoma) was < 0.0211 µM and the GI50 (MDA-MB-231 breast) was < 0.0196 µM. For the same molecule, the TGI (MDA-MB-231 breast) was 4.27 µM, the GI50 (HL-60(TB) leukemia) was < 0.0142 µM and the TGI (HL-60(TB) leukemia) was < 0.0189 µM. The GI50 (SK-MEL-28 melanoma) was 0.27 µM and the TGI (SK-MEL-28 melanoma) was 8.22 µM.
